Residues, ends and D or L forms follow the SMILES beside them.
How the values were obtained:
LptA-His6 (E. coli) = LptA-His6 (E. coli) (UniProt P0ADV1); assay: fluorescence polarisation
E. coli = conditions: IM or OM of E. coli; cited from earlier work
[1] = target: LptA labeled with DyLight650 (E. coli) (UniProt P0ADV1); assay: MST
Gram-negative strains = conditions: all the Gram-negative strains tested; cited from earlier work

Q: With thanatin-BDP-FL (peptide) as the compound, how does the Kd (LptA-His6 (E. coli)) read?
A: Its Kd is 12 nM.

Q: With polymyxin B as the compound, how does the “membrane permeabilization by other cationic antimicrobial peptides” value (E. coli) read?
A: The value was “unlike what is seen with some other cationic antimicrobial peptides”.

Q: With thanatin (peptide) as the compound, how does the Kd [1] read?
A: Its Kd is 20 nM.

Q: With `CC[C@H](C)CCCCC(=O)N[C@@H](CCN)C(=O)N[C@H](C(=O)N[C@@H](CCN)C(=O)N[C@H]1CCNC(=O)[C@H]([C@@H](C)O)NC(=O)[C@H](CCN)NC(=O)[C@H](CCN)NC(=O)[C@H](CC(C)C)NC(=O)[C@@H](CC(C)C)NC(=O)[C@H](CCN)NC1=O)[C@@H](C)O` [Colistin] (HELM PEPTIDE1{[CC[C@H](C)CCCCC(=O)[*:2]].[Dab].T.[Dab].[Dab].[Dab].[dL].L.[Dab].[Dab].T}$PEPTIDE1,PEPTIDE1,5:R3-11:R2$$$V2.0; N-terminus assumed; bridges inferred) as the compound, how does the “membrane permeabilization by other cationic antimicrobial peptides” value (E. coli) read?
A: Its value is “unlike what is seen with some other cationic antimicrobial peptides”.

Q: With “D-thanatin: enantiomeric form of thanatin (comprising all D-amino acids)” as the compound, how does the “activity of enantiomeric form” value (Gram-negative strains) read?
A: The value was “loses much of its activity”.

From article PMC6235536 (Science Advances, 2018)
